One molecule from patent US5723494A, “Derivatives of glutamic and aspartic acids, a method of preparing them, and their use as drugs for enhancing memory and learning” (priority 1993, dated 1998) can be followed below.

Entries after “also recorded” stand apart in the source; their conditions may differ.

Assay [1] can be described thus: Antiamnesic activity in the mouse (step-down passive avoidance, amnesia induced by ECS). Format: in vivo, mouse (CD1 male). To be noted: mouse.
Assay [2] in a line: Memory-enhancement activity in the passive avoidance test in the rat. Type of assay: in vivo, rat (male Wistar). To be noted: rat.
Assay [3] can be described thus: Antagonism of the amnesic effect induced by scopolamine in the passive avoidance test in the rat. Format: in vivo. As to conditions: for % Effect vs controls / Latency (STL): FS + SCOP. As for the experimental part: 4) Antagonism of the amnesic effect induced by scopolamine in the "passive avoidance" test in the rat.
The shuttle box equipment was used for passive avoidance as described in Experiment 2 with the following modifications: the compounds (or physiological solutions for the control group) were administered intraperitoneally (IP) 45 min before the training, whereas scopolamine (SCOP) was administered 30 min before the training. The foot shock (FS) consisted of a 0.2 mA shock of 5 sec duration.
The retest to determine memory was executed 24 h after the training. In each individual experiment, the following groups were used: a control group (-FS), a control group (+FS), a control group (FS+SCOP), 3 treatment groups with different doses of the product under test (FS+SCOP).

Assay [4] concerns excitor amino-acid receptors of cortical membranes ("forebrain") of rats. Briefly: Inhibition of the specific binding of [3H]-glutamate to rat forebrain membranes. Summed up: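 Forebrain membranes (cortex plus hippocampus, striatum removed) in Tris-HCl pH 7.1 incubated with ³H-L-glutamate and test compound for 20 min at 37 °C. Filtration on glass-fibre filters, scintillation counting; specific binding = total minus binding with 3.6 mM cold L-glutamate.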

The term IC50 denotes the concentration at which inhibition is half-maximal. Low readings indicate inhibition by little substance, high ones a need for much substance. On to `CC1(C)CCC(NC(=O)[C@@H](N)CCC(=O)O)CC1` [Compound 23, 1-(4,4-dimethylcyclohexyl)-L-isoglutamine[4-amino-5-(4',4'-dimethylcyclohexylamine)-5-oxopentanoic acid (S)]], for which the “Antiamnesic activity (in words)” value in assay [1] (OS) is listed as “particularly remarkable”. For the same molecule, the change in vivo at 0.1 mg/kg was found to be 20% in assay [1] (po, 0.1 mg/kg OS, retest 24 h after training, read-out: Reversal of the amnesia (% vs controls), as the increase in the Step Down Latency) and 11% in assay [2] (96 h, 0.1 mg/kg IP, retest on the 4th day, 6 treatments, read-out: % variation vs controls (FS) in step through latency). Moreover, the change in vivo at 1 mg/kg worked out at 40% in assay [1] (po, 1 mg/kg OS, retest 24 h after training, read-out: Reversal of the amnesia (% vs controls), as the increase in the Step Down Latency) and 19% in assay [2] (96 h, 1 mg/kg IP, retest on the 4th day, 6 treatments, read-out: % variation vs controls (FS) in step through latency). In addition, the change in vivo at 3 mg/kg in assay [1] (po, 3 mg/kg OS, retest 24 h after training, read-out: Reversal of the amnesia (% vs controls), as the increase in the Step Down Latency) was 37%. Also, the change in vivo at 10 mg/kg was 61% in assay [1] (po, 10 mg/kg OS, retest 24 h after training, read-out: Reversal of the amnesia (% vs controls), as the increase in the Step Down Latency) and 43% in assay [2] (96 h, 10 mg/kg IP, retest on the 4th day, 6 treatments, read-out: % variation vs controls (FS) in step through latency). For the same molecule, in assay [1] (po, 30 mg/kg OS, retest 24 h after training, read-out: Reversal of the amnesia (% vs controls), as the increase in the Step Down Latency), the change in vivo at 30 mg/kg came to 67%. Further, the ED50 in assay [1] (po, OS, 60 min before training, read-out: ID50 (antiamnesic activity, dose inhibiting the amnesic effect of the ECS by 50%)) is 4.6 mg/kg; in assay [3] (IP, rat, retest 24 h after training, read-out: ID50 (dose antagonizing the amnesic effect of scopolamine by 50%)) it was 4.7 mg/kg. Further, the ED30 in assay [2] (IP, read-out: ED30 (dose increasing the latency time (STL) by 30%)) worked out at 2.3 mg/kg. In addition, the “Activity in increasing the avoidance time (in words)” value in assay [2] (IP, retest on the 4th day) was “considerable activity in increasing the avoidance time”. Also, the results for the “% Effect vs controls” value in assay [3] (0.1 mg/kg IP), in assay [3] (1 mg/kg IP) and in assay [3] (10 mg/kg IP) were 7.1%, 38.0% and 55.8%, respectively. Moreover, the figures for the “Latency (STL)” value in assay [3] (0.1 mg/kg IP), in assay [3] (1 mg/kg IP) and in assay [3] (10 mg/kg IP) were 60.8 s, 72.0 s and 78.6 s, respectively. Moreover, in assay [3] (rat, IP), the “Antagonism of the amnesic effect of scopolamine (in words)” value is “antagonizes the amnesic effect induced by scopolamine in a dose-dependent manner; also recorded: comparable, in this model, with that of tacrine”. The “Activity in inhibiting the binding of glutamate (in words)” value in assay [4] (rat cortical membranes) was “considerable activity in inhibiting the binding of the glutamate”. This molecule also registered a half-maximal inhibitory concentration (IC50) in assay [4] (rat forebrain membranes, 20 min, 37° C., pH 7.1) of 13.8 µM.
